Several values for one entry are separate records, joined by “and”; a condition that tells them apart may be missing. Equal values may be shown once. Read-outs that look alike come from different tables or passages of the source. Values belong to the compound of their own block, whether it stands above or below them. [s] = deoxynucleotide carrying the publication's artificial base s, incorporated via its phosphoramidite; [v] = deoxynucleotide carrying the publication's artificial base v, incorporated via its phosphoramidite
Tests used:
[1] = FRET between s or v in 35-mer DNA and FAM-y or FAM-hx-y in 17-mer RNA (DNA/RNA duplexes); format: physicochemical; conditions: for FRET with 17-mer RNA using excessive DNA probe: 10 molar equivalents of DNA against the 17-mer RNA
From the text: (§1) DNA containing an artificial base s or v was synthesized as described, for example, in WO 01/05801 or WO 2005/026187 by using a cyanoethylphosphoroamidite derivative of a nucleotide containing an artificial base s or v in accordance with the DNA chemical synthesis method well known in the art. The sequence of the chemically synthesized 35-mer DNA is as follows: 5′-CAN1N2N3[…]-3′ (SEQ ID NO: 20; DNA in which N1N2N3 is CTs or CTv is referred to as DNA35s1 or DNA35v1, respectively; DNA in which N1N2N3 is Css or Cvv is referred to as DNA35s2a or DNA35v2a, respectively; and DNA in which N1N2N3 is sTs or vTv is referred to as DNA35s2b or DNA35v2b, respectively). The resulting DNA was purified by gel electrophoresis.
17-mer RNA incorporating FAM-y or FAM-hx-y at the N′ position (5′-[…]′AGUG-3′; SEQ ID NO: 21) was prepared through T7 transcription using T7 RNA polymerase and a substrate of FAM-y or FAM-hx-y (FAM-yTP or FAM-hx-yTP). […] The reaction mixture was heated at 75° C. for 3 minutes and the 17-mer transcript was purified by gel electrophoresis.
(§2) Fluorescence spectra were measured in a buffer containing 10 mM sodium phosphate (pH 7.0), 100 mM NaCl and 0.1 mM EDTA. Emission spectra were recorded with an excitation wavelength of 350 nm for s and 360 nm for v, respectively. The emission spectral bandpass was set to 5 nm.
The 17-mer RNA site-specifically incorporating FAM-y or FAM-hx-y was hybridized with 35-mer DNA site-specifically containing one or two s or v bases (DNA35s1, 35s2a, 35S2b, 35v1, 35v2a or 35v2b) to measure emission spectra for the DNA/RNA duplex at different temperatures (20° C. and 70° C.).

[2] = Steady-state fluorescence emission of single-stranded DNAs containing s or v; format: physicochemical; conditions: single-stranded 35-mer DNA with two artificial bases
From the text: as §1, §2

[3] = Excitation and fluorescence spectra of the fluorescent bases; format: physicochemical; conditions: for fluorescence wavelength, center: excited at the stated excitation wavelength
T7 RNA polymerase [4] = biological target: T1, T7 RNA polymerase (Escherichia phage T7, UniProt P00573)
Protocol: In this example, to study the selectivity of s-Pa base pair during transcription, composition analysis was performed on nucleotides in the full-length (17-mer) transcripts obtained by transcription from Pa, z and natural templates. The transcripts were each internally labeled with any of [α-^32P]UTP, [α-^32P]ATP or [α-^32]GTP, and these transcripts were completely digested with RNase T2 into a nucleoside 3′-phosphate form. The resulting labeled nucleotides were analyzed by 2D-TLC (FIG. 3), and the spots were quantified for each nucleoside 3′-monophosphate (Table 1).
More specifically, transcription was performed in 40 mM Tris-HCl (pH 8.0) buffer (20 μl) containing 24 mM MgCl2, 2 mM spermidine, 5 mM DTT and 0.01% Triton X-100, in the presence of 10 mM GMP, 1 mM natural NTPs (1 mM, N=A, G, C, U), 0, 1 or 3 mM sTP, 2 μCi [γ-^32P]UTP, [γ-^32P]ATP or [γ-^32P]GTP (Amersham), 2 μM template DNA, and 50 units of T7 RNA polymerase (Takara) (Non-patent Documents 14 and 15). After incubation for 3 hours at 37° C., a dye solution was added to stop the transcription.
This mixture was heated at 75° C. for 3 hours and then electrophoresed on a 15% polyacrylamide-7 M urea gel. The full-length product was eluted from the gel and 0.05 A260 units of E. coli tRNA was then added thereto, followed by ethanol precipitation. The transcript was digested at 37° C. for 2 hours with 0.075 U/μl RNase T2 in 15 mM sodium acetate buffer (pH 4.5). […] The digestion products were analyzed by 2D-TLC using a Merck HPTLC plate (100×100 mm, Merck, Darmstadt, Germany). The developing solvents used for the first and second dimensions were isobutyric acid/NH4OH/H2O (66:1:33 v/v/v) and isopropyl alcohol/HCl/H2O (70:15:15 v/v/v), respectively. The products on the TLC plate were analyzed with a bio-imaging analyzer. Each spot was quantified by averaging from 3 to 9 data sets.

T7 RNA polymerase [5] = biological target: T1, T7 RNA polymerase; conditions: natural NTPs 1 mM, sTP 1 mM; for relative yield of full-length (17-mer) transcript: template DNA containing one unnatural base, natural-base template set to 100%; for full-length transcript formation: template containing two unnatural bases
Protocol: Transcription was performed in a 40 mM Tris-HCl (pH 8.0) buffer solution (20 μl) containing 24 mM MgCl2, 2 mM spermidine, 5 mM DTT and 0.01% Triton X-100, in the presence of 1 mM natural NTPs or 1 mM sTP, 2 μCi [γ-^32P]GTP, 2 μM template and 50 units of T7 RNA polymerase (Takara, Kyoto).
The use of [γ-^32P]GTP allowed determination of yields because the transcripts were labeled only at their 5′-end. After incubation at 37° C. for 3 hours, a dye solution (20 μl ) containing 10 M urea and 0.05% BPB was added to stop the reaction. The mixtures were each heated at 75° C. for 3 hours and the products were analyzed on a 20% polyacrylamide-7 M urea gel.
These templates were used to effect transcription for 3 hours, and the transcripts whose 5′-end was labeled with [γ-^32P]GTP were analyzed on a gel. […] The transcripts are labeled with [γ-^32P]GTP at their 5′-end. The relative yield of each transcript was determined in comparison with the yield of a transcript from a template composed only of natural bases, which was set to 100%. Each yield was averaged from 3 to 4 data sets.

T7 RNA polymerase [6] = biological target: T1, T7 RNA polymerase; conditions: 1 mM yTP; template composed only of natural bases (Entry No. 10)
Protocol: T7 RNA polymerase-mediated transcription reaction was accomplished in a reaction solution containing 40 mM Tris-HCl buffer (pH 8.0), 8 mM MgCl2, 2 mM spermidine, 5 mM DTT, 0.01% Triton X-100, 2 μCi [α-^32P]ATP or 2 μCi [α-^32P]GTP or 2 μCi [α-^32P]CTP or 2 μCi [α-^32P]UTP, 1 mM NTPs, 0-1 mM sTP, 0-1 mM yTP, 0.5 μM template DNA, and 50 units of T7 RNA polymerase (Takara). The transcript was purified by electrophoresis on a 15% polyacrylamide-7 M urea gel, eluted from the gel and then collected by ethanol precipitation in the presence of tRNA (0.05 OD). This sample was dissolved in 10 μl sterilized water, and the resulting solution (8.5 μl) was provided for complete digestion with RNase T2. To the solution (8.5 μl), RNase T2 (1.5 μl, 0.5 U/μl) was added and reacted at 37° C. for 2 hours. A part of this solution was spotted on a TLC plate (Merck, 10 cm×10 cm) and developed two-dimensionally. The developing solutions used for the first and second dimensions were isobutyric acid:concentrated aqueous ammonia:water=66:1:33 (v/v/v) and 2-propanol:hydrochloric acid:water=65:10:25 (v/v/v), respectively.
In this technique, upon incorporation of a radioactive substrate, a nucleotide located at the 5′-side of the substrate can be detected on two-dimensional TLC. […]

T1 sequence (P00573 whole entry): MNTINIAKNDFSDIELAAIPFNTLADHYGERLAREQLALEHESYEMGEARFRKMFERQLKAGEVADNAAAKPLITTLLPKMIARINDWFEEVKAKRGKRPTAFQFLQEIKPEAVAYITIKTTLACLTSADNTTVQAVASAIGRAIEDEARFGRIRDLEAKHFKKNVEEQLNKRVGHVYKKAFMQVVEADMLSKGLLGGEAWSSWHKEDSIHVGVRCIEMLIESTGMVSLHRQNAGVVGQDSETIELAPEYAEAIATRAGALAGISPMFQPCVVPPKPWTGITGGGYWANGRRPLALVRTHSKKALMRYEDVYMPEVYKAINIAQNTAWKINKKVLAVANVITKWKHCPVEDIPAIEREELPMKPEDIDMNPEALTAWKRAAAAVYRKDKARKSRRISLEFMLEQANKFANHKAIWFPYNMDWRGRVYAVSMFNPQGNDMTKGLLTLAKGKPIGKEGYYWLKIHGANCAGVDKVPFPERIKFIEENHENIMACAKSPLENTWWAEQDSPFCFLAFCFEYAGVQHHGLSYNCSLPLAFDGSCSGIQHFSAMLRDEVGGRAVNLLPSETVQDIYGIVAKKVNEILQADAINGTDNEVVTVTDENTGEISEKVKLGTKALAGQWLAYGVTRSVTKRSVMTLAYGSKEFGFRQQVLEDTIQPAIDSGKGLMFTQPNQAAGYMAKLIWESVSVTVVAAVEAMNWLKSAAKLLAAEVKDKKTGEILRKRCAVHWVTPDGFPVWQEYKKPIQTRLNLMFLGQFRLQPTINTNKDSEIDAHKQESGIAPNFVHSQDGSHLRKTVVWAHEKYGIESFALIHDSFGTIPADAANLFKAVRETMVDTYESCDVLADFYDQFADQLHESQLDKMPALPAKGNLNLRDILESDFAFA

Compound: DNA35s2a: 35-mer DNA (SEQ ID NO: 20) in which N1N2N3 is Css (DNA CACNNCTCGGGATTCCCTATAGTGAGTCGTATTAT; DNA, [s] at 4, 5, backbone, methylation of C and the base at N not given here)
FRET with 17-mer RNA using excessive DNA probe [1]: FRET was clearly observed
FRET in duplex with 17-mer RNA incorporating FAM-y or FAM-hx-y ([1]; 20° C.): FRET occurred efficiently
fluorescence intensity of single-stranded DNA [2]: significantly decreased

excitation wavelength (maximum) [3]: 363 nm
fluorescence wavelength, center [3]: 461 nm
Compound: Nc1nc(-c2nccs2)c2nc[nH]c2n1 [v, 2-amino-6-(2-thiazolyl)-9H-purin-9-yl group]

Compound: Nc1nc(-c2cccs2)c2nc[nH]c2n1 [s, 2-amino-6-(2-thienyl)-9H-purin-9-yl group]
selectivity of s incorporation into RNA opposite Pa in the template DNA (T7 RNA polymerase [4]; template containing one Pa base, sTP 1 mM (Table 1, Entry No. 1)): 97%
selectivity of s incorporation at the first position (T7 RNA polymerase [4]; template containing two Pa bases): 95%
selectivity of s incorporation at the second position (T7 RNA polymerase [4]; template containing two Pa bases, sTP 1 mM): 84-87%
selectivity of s incorporation at the second position (T7 RNA polymerase [4]; template containing two Pa bases, sTP 3 mM): 89-93%
excitation wavelength (maximum) [3]: 352 nm and 299 nm
fluorescence wavelength, center [3]: 434 nm
quantum yield of the fluorescence ([3]; pH 7.0): 0.41

Compound: DNA35v2a: 35-mer DNA (SEQ ID NO: 20) in which N1N2N3 is Cvv (DNA CACNNCTCGGGATTCCCTATAGTGAGTCGTATTAT; DNA, [v] at 4, 5, backbone, methylation of C and the base at N not given here)
FRET with 17-mer RNA using excessive DNA probe [1]: FRET was clearly observed
FRET in duplex with 17-mer RNA incorporating FAM-y or FAM-hx-y ([1]; 20° C.): FRET occurred efficiently
fluorescence intensity of single-stranded DNA [2]: significantly decreased

Compound: 2-formyl-1H-pyrrol-1-yl group [Pa]
relative yield of full-length (17-mer) transcript (T7 RNA polymerase [5]): 92%
full-length transcript formation (T7 RNA polymerase [5]): full-length products were obtained

Compound: DNA35s1: 35-mer DNA (SEQ ID NO: 20) in which N1N2N3 is CTs (DNA CACTNCTCGGGATTCCCTATAGTGAGTCGTATTAT; DNA, [s] at 5, backbone, methylation of C and the base at N not given here)
FRET with 17-mer RNA using excessive DNA probe [1]: completely buried in the background fluorescence
FRET in duplex with 17-mer RNA incorporating FAM-y or FAM-hx-y ([1]; 20° C.): FRET occurred
FRET in duplex with 17-mer RNA incorporating FAM-y or FAM-hx-y ([1]; duplex denatured at 70° C.): FRET was significantly reduced

Compound: DNA35s2b: 35-mer DNA (SEQ ID NO: 20) in which N1N2N3 is sTs (DNA CANTNCTCGGGATTCCCTATAGTGAGTCGTATTAT; DNA, [s] at 3, 5, backbone, methylation of C and the base at N not given here)
fluorescence intensity of single-stranded DNA [2]: no significant decrease

excitation wavelength (maximum) [3]: 325 nm
fluorescence wavelength, center [3]: 381 nm
Compound: c1csc(-c2ncnc3[nH]cnc23)c1 [s′, 6-(2-thienyl)-9H-purin-9-yl group]

Compound: Nc1nc(-c2cccs2)c2ncn([C@@H]3O[C@H](COP(=O)(O)OP(=O)(O)OP(=O)(O)O)[C@@H](O)[C@H]3O)c2n1 [sTP, 2-amino-6-(2-thienyl)-9-(1-β-D-ribofuranosyl)purine 5′-triphosphate]
misincorporation of sTP opposite natural bases in the template (T7 RNA polymerase [4]; Table 1, Entry Nos. 4 and 6): no misincorporation

Compound: DNA35v2b: 35-mer DNA (SEQ ID NO: 20) in which N1N2N3 is vTv (DNA CANTNCTCGGGATTCCCTATAGTGAGTCGTATTAT; DNA, [v] at 3, 5, backbone, methylation of C and the base at N not given here)
fluorescence intensity of single-stranded DNA [2]: no significant decrease

Compound: 2-oxo-1,3-dihydroimidazol-1-yl group [reference compound]
relative yield of full-length (17-mer) transcript (T7 RNA polymerase [5]): 35%
full-length transcript formation (T7 RNA polymerase [5]): no full-length transcript was obtained

Compound: DNA35v1: 35-mer DNA (SEQ ID NO: 20) in which N1N2N3 is CTv (DNA CACTNCTCGGGATTCCCTATAGTGAGTCGTATTAT; DNA, [v] at 5, backbone, methylation of C and the base at N not given here)
FRET with 17-mer RNA using excessive DNA probe [1]: completely buried in the background fluorescence
FRET in duplex with 17-mer RNA incorporating FAM-y or FAM-hx-y ([1]; 20° C.): FRET occurred
FRET in duplex with 17-mer RNA incorporating FAM-y or FAM-hx-y ([1]; duplex denatured at 70° C.): FRET was significantly reduced

Compound: O=c1[nH]cccc1C1OC(COP(=O)(O)OP(=O)(O)OP(=O)(O)O)C(O)C1O (stereo not shown) [yTP]
incorporation of yp opposite natural template bases (T7 RNA polymerase [6]): a slight amount of yp was incorporated
